# Calls of active or inactive are those of the source. No cut-off for these calls is given here.
# Tests used:
# [1] = test system: Bacillus anthracis; experiment: Antibacterial activity against Bacillus anthracis infected in Fischer 344 rat assessed as enhancement of survival rate against lethal toxin-mediated toxicity at 1.25 mg, iv administered 30 mins prior to 10 ug bacterial lethal factor infusion measured up to 8 hrs; format: functional, organism-based
# [2] = test system: Bacillus anthracis; experiment: Antibacterial activity against Bacillus anthracis infected in Fischer 344 rat assessed as enhancement of survival rate against lethal toxin-mediated toxicity at 1.25 mg, iv coadministered along with 10 ug bacterial lethal factor measured up to 8 hrs; format: functional, organism-based
# [3] = test system: Bacillus anthracis; experiment: Antibacterial activity against Bacillus anthracis infected in Fischer 344 rat assessed as time to death at 0.25 mg, iv coadministered along with 10 ug bacterial lethal factor up to 8 hrs; format: functional
# [4] = molecular target: T1, Lethal factor (Bacillus anthracis, UniProt P15917); experiment: Inhibition of Bacillus anthracis lethal factor
# T1 sequence (P15917 whole entry): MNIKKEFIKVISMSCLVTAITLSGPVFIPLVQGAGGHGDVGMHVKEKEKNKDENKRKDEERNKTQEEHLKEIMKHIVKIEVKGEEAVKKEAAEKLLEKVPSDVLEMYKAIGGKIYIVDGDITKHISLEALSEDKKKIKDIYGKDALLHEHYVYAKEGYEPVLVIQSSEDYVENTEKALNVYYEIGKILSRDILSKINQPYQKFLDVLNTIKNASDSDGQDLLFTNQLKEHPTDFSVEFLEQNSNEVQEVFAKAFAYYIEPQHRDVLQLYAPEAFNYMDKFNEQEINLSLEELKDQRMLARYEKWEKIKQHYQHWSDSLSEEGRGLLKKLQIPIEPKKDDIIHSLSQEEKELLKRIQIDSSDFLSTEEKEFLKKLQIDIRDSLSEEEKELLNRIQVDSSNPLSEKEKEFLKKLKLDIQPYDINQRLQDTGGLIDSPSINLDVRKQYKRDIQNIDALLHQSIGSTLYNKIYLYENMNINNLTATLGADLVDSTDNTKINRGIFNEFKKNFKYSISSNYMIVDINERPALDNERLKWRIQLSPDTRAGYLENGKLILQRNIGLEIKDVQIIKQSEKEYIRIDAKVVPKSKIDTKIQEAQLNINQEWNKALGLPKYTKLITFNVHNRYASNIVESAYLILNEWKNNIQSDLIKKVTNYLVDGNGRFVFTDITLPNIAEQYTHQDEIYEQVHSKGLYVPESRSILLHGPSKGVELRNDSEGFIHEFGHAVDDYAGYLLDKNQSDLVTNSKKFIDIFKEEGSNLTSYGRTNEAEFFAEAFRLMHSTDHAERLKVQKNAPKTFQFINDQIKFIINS
# [5] = test system: Bacillus anthracis; experiment: Antibacterial activity against Bacillus anthracis infected in Fischer 344 rat assessed as enhancement of survival rate against lethal toxin-mediated toxicity at 0.25 mg, iv coadministered along with 10 ug bacterial lethal factor measured up to 8 hrs; format: functional, organism-based
# [6] = test system: Bacillus anthracis; experiment: Antibacterial activity against Bacillus anthracis infected in Fischer 344 rat assessed as time to death at 0.017 mg, iv coadministered along with 10 ug bacterial lethal factor up to 8 hrs; format: functional
# [7] = test system: Bacillus anthracis; experiment: Antibacterial activity against Bacillus anthracis infected in Fischer 344 rat assessed as enhancement of survival rate against lethal toxin-mediated toxicity at 0.085 mg, iv coadministered along with 10 ug bacterial lethal factor measured up to 8 hrs; format: functional, organism-based
# [8] = test system: Bacillus anthracis; experiment: Antibacterial activity against Bacillus anthracis Sterne infected in DBA/2 mouse assessed survival rate at 2.5 mg/kg, iv QD for 10 days measured post last dose in presence of 50 mg/kg/day, ip ciprofloxacin; format: functional
# [9] = test system: Bacillus anthracis; experiment: Antibacterial activity against Bacillus anthracis Sterne infected in DBA/2 mouse at 2.5 mg/kg, iv QD for 10 days measured post last dose; format: functional, organism-based; design: dose 2.5 mg/kg
Compound,Activity [1],Activity [2],Time [3] [min],IC50 [4] [nM],Activity [5],Time [6] [min],Activity [7],Activity [8],Activity [9]
NCCCSC[C@H]1O[C@H]2O[C@H]3[C@H](O)[C@@H](O)[C@H](O[C@H]4[C@H](O)[C@@H](O)[C@H](O[C@H]5[C@H](O)[C@@H](O)[C@H](O[C@H]6[C@H](O)[C@@H](O)[C@H](O[C@H]7[C@H](O)[C@@H](O)[C@H](O[C@H]8[C@H](O)[C@@H](O)[C@H](O[C@H]1[C@H](O)[C@H]2O)O[C@@H]8CSCCCN)O[C@@H]7CSCCCN)O[C@@H]6CSCCCN)O[C@@H]5CSCCCN)O[C@@H]4CSCCCN)O[C@@H]3CSCCCN,Active,Active,130,2900,inactive,,,,
NCc1ccc(CSC[C@H]2O[C@H]3O[C@H]4[C@H](O)[C@@H](O)[C@H](O[C@H]5[C@H](O)[C@@H](O)[C@H](O[C@H]6[C@H](O)[C@@H](O)[C@H](O[C@H]7[C@H](O)[C@@H](O)[C@H](O[C@H]8[C@H](O)[C@@H](O)[C@H](O[C@H]9[C@H](O)[C@@H](O)[C@H](O[C@H]2[C@H](O)[C@H]3O)O[C@@H]9CSCc2ccc(CN)cc2)O[C@@H]8CSCc2ccc(CN)cc2)O[C@@H]7CSCc2ccc(CN)cc2)O[C@@H]6CSCc2ccc(CN)cc2)O[C@@H]5CSCc2ccc(CN)cc2)O[C@@H]4CSCc2ccc(CN)cc2)cc1,Active,,,700,Active,382,Active,,
NCCCCCCCCSC[C@H]1O[C@H]2O[C@H]3[C@H](O)[C@@H](O)[C@H](O[C@H]4[C@H](O)[C@@H](O)[C@H](O[C@H]5[C@H](O)[C@@H](O)[C@H](O[C@H]6[C@H](O)[C@@H](O)[C@H](O[C@H]7[C@H](O)[C@@H](O)[C@H](O[C@H]8[C@H](O)[C@@H](O)[C@H](O[C@H]1[C@H](O)[C@H]2O)O[C@@H]8CSCCCCCCCCN)O[C@@H]7CSCCCCCCCCN)O[C@@H]6CSCCCCCCCCN)O[C@@H]5CSCCCCCCCCN)O[C@@H]4CSCCCCCCCCN)O[C@@H]3CSCCCCCCCCN,Active,,,300,Active,623,Active,,
NCc1cccc(CSC[C@H]2O[C@H]3O[C@H]4[C@H](O)[C@@H](O)[C@H](O[C@H]5[C@H](O)[C@@H](O)[C@H](O[C@H]6[C@H](O)[C@@H](O)[C@H](O[C@H]7[C@H](O)[C@@H](O)[C@H](O[C@H]8[C@H](O)[C@@H](O)[C@H](O[C@H]9[C@H](O)[C@@H](O)[C@H](O[C@H]2[C@H](O)[C@H]3O)O[C@@H]9CSCc2cccc(CN)c2)O[C@@H]8CSCc2cccc(CN)c2)O[C@@H]7CSCc2cccc(CN)c2)O[C@@H]6CSCc2cccc(CN)c2)O[C@@H]5CSCc2cccc(CN)c2)O[C@@H]4CSCc2cccc(CN)c2)c1,Active,Active,,500,Active,285,Active,<=90%,Active
